This is an account of results in patent US20260191803A1, “SYSTEM AND METHOD FOR THE TREATMENT OF TELOGEN EFFLUVIUM AND CHEMOTHERAPY INDUCED ALOPECIA” (Follea International, priority 2025, published 2026).

The test system of the experiment is hair shedding. Put plainly: Example 5: hair shedding, hairs removed with brush after 10% phenylephrine or placebo. Format: in vivo, human. To be noted: average of 15 patients; versus placebo.

Text: Patients: Fifteen female subjects, ages 18-40, were included in the study. Subjects were recruited based on telogen effluvium diagnosis. Subjects with uncontrolled hypertension, that were pregnant or breastfeeding, had been diagnosed with pattern hair loss or with other hair loss in conjunction with female pattern hair loss were excluded from the study.
Hair Shedding: To measure hair shedding, a 4-day protocol was designed. On the first day patients were instructed to wash their hair and use styling products and procedures as they normally would. On the second day, patients were instructed not to wash their hair and to apply 0.5 mL of a placebo solution, containing a vehicle only, on the frontal area of the scalp in an 8×10 cm2 target area. Patients were instructed to wait 45 minutes, after which, they brushed their hair 20 times from the front of the scalp to the bottom of head using a new brush. After the procedure, the brushes were sealed in a plastic bag. On day three, patients were instructed to wash their hair and use styling products and procedures as they normally would. […] After each clinical procedure, the investigator counted the hairs collected on each brush. A new brush was used for each procedure.

As to `CNC[C@H](O)c1cccc(O)c1` [phenylephrine], the “Average reduction in hair loss” value is reported as “approximately 42%”.
